Measurements: patent publication US5952335A, “Fused polycyclic heterocycle derivatives” (Eisai Co., Ltd., priority 1995, dated 1999)
Where a name gives a salt, the structure may show the parent alone. Read-outs that look alike come from different tables or passages of the source.

Assays:
[1] = cited from earlier work
[2] = tested on: P388 cells; assay: in vitro Antitumor Test on P388 Cells (Mouse Leukemic Cells), MTT, 3 days; format: cell-based; conditions: 72 h, 3 days incubation
Description: P388 cells suspended in RPMI1640 medium (manufactured by Sanko Junyaku) containing 10% of fetal calf serum, (100 U/ml) of penicillin, 100 μg/ml of streptomycin, 5×10^-5 M of mercaptoethanol and 1 mM of sodium pyruvate were pipetted into a 96-well U-bottomed microplate at a ratio of 1.25×10^3 cells (0.1 ml) per well and incubated in a incubator containing 5% of carbon dioxide at 37° C. for a day. A compound of the present invention was dissolved in dimethyl sulfoxide to give a concentration of 10^-2 M and then diluted with the 10% fetal calf serum-containing RPMI1640 culture medium to give a concentration of 10^-4 or 10^-5 M. By taking this concentration as the maximal level, threefold serial dilution was effected with the use of the 10% fetal calf serum-containing RPMI1640 culture medium. Then these dilutions were added to the P388 incubation plate as described above at a ratio of 0.1 ml per well followed by incubation in an incubator containing 5% of carbon dioxide at 37° C. for 3 days. After the completion of the incubation, 0.05 ml/well of a 3.3 mg/ml solution of MTT [3-(4,5-dimethylthiazol-2-yl)-2,5-diphenyltetrazolium bromide] was added thereto and the incubation was continued for additional 2 hours. The microplate was centrifuged and the supernatant was aspirated off from each well. Then the formazan thus formed was dissolved in 0.1 ml of dimethyl sulfoxide and the absorbance thereof at 540 nm measured with a microplate reader was taken as an indication of the viable cell count. In accordance with the following formula, the inhibitory ratio was calculated and the 50% inhibitory concentration (IC50) of the test compound was determined: [formula] wherein T means the absorbance of a well containing the test compound; and C means the absorbance of a well containing no test compound.

[3] = tested on: M5076 (Mouse Reticulum Cell Sarcoma); assay: in vivo Antitumor Test on M5076 (Mouse Reticulum Cell Sarcoma) transplanted in BDF1 mice; conditions: M5076, ip, 504 h, i.p.; for survival rate on day 21 at 25 mg/kg / inhibition in vivo at 25 mg/kg: 25 mg/kg/day, d9 after transplantation
Description: M5076 cells (1×10^6 /animal) were subcutaneously transplanted into the side part of each BDF1 mouse (aged 6 to 7 weeks, female). A compound of the present invention was dissolved in a 5% solution of glucose. From the next day of the transplantation, the solution of the compound was intraperitoneally administered to the animals once a day in accordance with each schedule. On the other hand, a 5% solution of glucose was administered to the control group. The control group had 10 animals, while each test group had 5 animals.
On the 21st day after the transplantation, tumors were taken out and weighed. The tumor multiplication inhibitory ratio of each test group to the control group was determined in accordance with the following formula: [formula] wherein T means the average tumor weight of the test group; and C means the average tumor weight of the control group.

[4] = tested on: MX-1 (Human Mammary Cancer); assay: in vivo Antitumor Test on MX-1 (Human Mammary Cancer) transplanted in nude mice; conditions: Mus musculus, ip, 528 h, i.p.; for responders at 25 mg/kg / inhibition in vivo at 25 mg/kg: 25 mg/kg/day
Description: MX-1 tumor pieces (about 1 mm^3) were subcutaneously transplanted into the side part of each nude mouse (BALB/C.nu/nu, 6 to 7 weeks, female). A compound of the present invention was dissolved in a 5% solution of glucose. When the tumor volume reached 50 mm^3 (on the about 10th day after the transplantation), the solution of the compound was intraperitoneally administered to the animals once a day in accordance with each schedule. On the other hand, a 5% solution of glucose was administered to the control group. The control group had 10 animals, while each test group had 5 animals. On the 22nd day after the transplantation, tumors were taken out and weighed. The tumor multiplication inhibitory ratio of each test group to the control group was determined in accordance with the following formula: [formula] wherein T means the average tumor weight of the test group; and C means the average tumor weight of the control group.

[5] = Drugs Fut., 17, 832 (1992), cited from earlier work
[6] = Farmaco, 47, 1035 (1992), J. Med. Chem., 37, 593 (1994)
[7] = read-out: Survival rate on the judgement day (21th day)
[8] = tumor weight day 21, read-out: Proliferation inhibitory ratio (%)
[9] = q7d × 3, read-out: Survival rate on the judgement day (22th day)
[10] = q7d × 3, tumor weight day 22, read-out: Proliferation inhibitory ratio (%)

2,3-dihydro-2-[2-(dimethylamino)ethyl]-1H,7H-naphthylidino[3,2,1-ij]quinazoline-1,3,7(2H)-trione
antitumor activity in preclinical tests [1, 6]: only a weak antitumor activity in preclinical tests

CN(C)CCn1c(=O)c2cccc3c(=O)c4ccccc4n(c1=O)c32 [2-[2-(dimethylamino)ethyl]pyrimid[5,6,1-de]acridine-1,3,7-trione]
antitumor activity in preclinical tests [1, 6]: only a weak antitumor activity in preclinical tests

CN(C)CCn1c(=O)c2cccc3c4c5ccccc5ccc4n(c1=O)c23 [Example 1, 5-[2-(Dimethylamino)ethyl]-4H-benzo[c]pyrimido[5,6,1-jk]carbazole-4,6(5H)-dione hydrochloride]
IC50 [2]: 290 nM | survival rate on day 21 at 50 mg/kg ([3]; 50 mg/kg/day, d1,2,3,4 after transplantation, read-out: Survival rate on the judgement day (21th day)): 100% | inhibition in vivo at 50 mg/kg ([3]; 50 mg/kg/day, d1,2,3,4 after transplantation, tumor weight day 21, read-out: Proliferation inhibitory ratio (%)): 95.2% | responders at 25 mg/kg ([4]; q4d × 4, read-out: Survival rate on the judgement day (22th day)): 100% | inhibition in vivo at 25 mg/kg ([4]; q4d × 4, tumor weight day 22, read-out: Proliferation inhibitory ratio (%)): 48%

CC(=O)c1ccc2c(ccc3c2c2cccc4c(=O)n(CCN(C)C)c(=O)n3c42)c1 [Example 2, 11-Acetyl-5-[2-(dimethylamino)ethyl]-4H-benzo[c]pyrimido[5,6,1-jk]carbazole-4,6(5H)-dione hydrochloride]
IC50 [2]: 70 nM | survival rate on day 21 at 25 mg/kg [3, 7]: 100% | inhibition in vivo at 25 mg/kg [3, 8]: 91.4% | responders at 25 mg/kg [4, 9]: 100% | inhibition in vivo at 25 mg/kg [4, 10]: 63.3%

CC(O)c1ccc2c(ccc3c2c2cccc4c(=O)n(CCN(C)C)c(=O)n3c42)c1 (centres unmarked) [Example 3, 5-[2-(Dimethylamino)ethyl]-11-(1-hydroxyethyl)-4H-benzo[c]pyrimido[5,6,1-jk]carbazole-4,6(5H)-dione hydrochloride]
IC50 [2]: 26 nM | survival rate on day 21 at 25 mg/kg [3, 7]: 100% | inhibition in vivo at 25 mg/kg [3, 8]: 90% | responders at 20 mg/kg ([4]; 20 mg/kg/day, q7d × 3, read-out: Survival rate on the judgement day (22th day)): 100% | inhibition in vivo at 20 mg/kg ([4]; 20 mg/kg/day, q7d × 3, tumor weight day 22, read-out: Proliferation inhibitory ratio (%)): 55.7%

CN(C)CCn1c(=O)c2cccc3c4c5c(ccc4n(c1=O)c23)C(=O)CCC5 [Example 4, 12,13-Dihydro-5-[2-(dimethylamino)ethyl]-4H-benzo[c]pyrimido[5,6,1-jk]carbazole-4,6,10(5H,11H)-trione hydrochloride]
IC50 [2]: 30 nM | survival rate on day 21 at 12.5 mg/kg ([3]; 12.5 mg/kg/day, d1,8,15 after transplantation, read-out: Survival rate on the judgement day (21th day)): 100% | inhibition in vivo at 12.5 mg/kg ([3]; 12.5 mg/kg/day, d1,8,15 after transplantation, tumor weight day 21, read-out: Proliferation inhibitory ratio (%)): 100% | survival rate on day 21 at 25 mg/kg [3, 7]: 100% | inhibition in vivo at 25 mg/kg [3, 8]: 89.2% | responders at 15 mg/kg ([4]; 15 mg/kg/day, q7d × 3, read-out: Survival rate on the judgement day (22th day)): 100% | inhibition in vivo at 15 mg/kg ([4]; 15 mg/kg/day, q7d × 3, tumor weight day 22, read-out: Proliferation inhibitory ratio (%)): 98.4%

CN(C)CCn1c(=O)c2cccc3c4c5c(ccc4n(c1=O)c23)C(=O)CO5 [Example 8, 8-[2-(Dimethylamino)ethyl]-7H-furo[3,2-c]pyrimido[5,6,1-jk]carbazole-3,7,9(2H,8H)-trione hydrochloride]
IC50 [2]: 340 nM | survival rate on day 21 at 30 mg/kg ([3]; 30 mg/kg/day, d1,8,15 after transplantation, read-out: Survival rate on the judgement day (21th day)): 100% | inhibition in vivo at 30 mg/kg ([3]; 30 mg/kg/day, d1,8,15 after transplantation, tumor weight day 21, read-out: Proliferation inhibitory ratio (%)): 99.9% | responders at 25 mg/kg [4, 9]: 100% | inhibition in vivo at 25 mg/kg [4, 10]: 94%

CN(C)CCN1C(=O)c2cccc3cc(N)cc(c23)C1=O [amonafide, 5-amino-2-[2-(dimethylamino)ethyl]-1H-benz[de]isoquinoline-1,3(2H)-dione]
efficacy in clinical tests [5]: poor efficacy in clinical tests | bone marrow toxicity ([5]; clinical tests): strong bone marrow toxicity

CN(C)CCN1C(=O)c2cccc3cc4ccccc4c(c23)C1=O [azonafide, 2-[2'-(dimethylamino)ethyl]-1,2-dihydro-3H-dibenz(deh)-isoquinoline-1,3-dione]
antitumor activity in preclinical tests ([1]; compared with amonafide, WO9200281): enhance the antitumor activity in preclinical tests
